Source: PubChem BioAssay (NCI)
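GI50 marks 50% less growth. The concentration for full growth arrest is given as TGI.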

Assays:
Assay in all cases: growth of human tumour cells (NCI), 384-well format
[1] = test system: OVCAR-5 ovarian
[2] = test system: NCI-H522 lung
[3] = test system: A498 renal
[4] = test system: HCT-116 colon
[5] = test system: IGROV1 ovarian
[6] = test system: NCI-H226 lung
[7] = test system: SNB-75 CNS
[8] = test system: U251 glioblastoma
[9] = test system: HL-60(TB) leukemia
[10] = test system: CCRF-CEM leukemia
[11] = test system: HCC-2998 colon
[12] = test system: SW-620 colon
[13] = test system: SF-295 CNS

Structure (SMILES): C=CCN(/C=C1\C(=O)O[C@H](COC)[C@@]2(C)C1=C(O)C(=O)C1=C2[C@H](OC(C)=O)C[C@]2(C)C(=O)CC[C@@H]12)CC=C
- GI50 [1]: 3.62 µM
- TGI [1]: 42.9 µM
- GI50 [2]: 2.08 µM
- TGI [2]: 14.4 µM
- GI50 [3]: 0.39 µM
- TGI [3]: 5.3 µM
- GI50 [4]: 4.61 µM
- TGI [4]: 31.4 µM
- GI50 [5]: 0.406 µM
- TGI [5]: 5.26 µM
- GI50 [6]: 2.76 µM
- TGI [6]: 56.7 µM
- GI50 [7]: 1.57 µM
- TGI [7]: 10.1 µM
- GI50 [8]: 13 µM
- TGI [8]: 82.7 µM
- GI50 [9]: 0.156 µM
- TGI [9]: 0.983 µM
- GI50 [10]: 0.723 µM
- TGI [10]: 4.53 µM
- GI50 [11]: 0.671 µM
- TGI [11]: 6.09 µM
- GI50 [12]: 7.45 µM
- TGI [12]: > 100 µM
- GI50 [13]: 2.12 µM
- TGI [13]: 18.7 µM
